# From publication PMC13089524, “Development of SYK NanoBRET cellular target engagement assays for gain–of–function variants” (Frontiers in chemical biology, 2024)
# Entries after “also recorded” stand apart in the source; their conditions may differ.
# Columns and labels:
# SYK(S550Y)-NL [1] = biological target: T1, SYK(S550Y)-NL (Homo sapiens, UniProt P43405, S550Y); test: NanoBRET assay in digitonin permeabilized HEK293 cells, SYK(S550Y)-NL; type: cell-based; settings: fixed concentration of tracer 8, average ± SEM, read-out: IC50, SYK(variant)-NL S550Y
# T1 construct: host or cells: HEK293
# Method: (§1) We performed NanoBRET tracer optimization to determine if the SYK tracers could effectively generate a BRET signal. […] To enable the NanoBRET assay using tracer 8 with cells permeabilized by digitonin, a tracer dose–response study was performed for each SYK(GoF) variant and SYK(WT) (Figure 3A), followed by tracer titration experiments (Figure 3B; Supplementary Figure S3). […] Initially, we determined the EC50 of tracer 8 for each SYK(GoF) variant and SYK(WT). […] Plates were incubated for 25 min at room temperature if digitonin was added or for 2 h at 37°C in 5% CO2 for the intact cell NanoBRET assay. […] For intact live cells in a 96-well plate, the 3X stock solution was prepared with 30 μL of NanoBRET NanoGlo substrate, 10 μL of extracellular NanoLuc inhibitor, and 4,960 μL of Opti-MEM without phenol red. […] Raw milliBRET units (mBU) were read on a GloMax Discover system (Promega) with a donor emission wavelength of 450 nm and an acceptor emission wavelength of 600 nm. mBU were calculated by dividing the acceptor emission values (600 nm) by the donor emission values (450 nm). For NanoBRET studies with SYK, background corrected mBU were calculated by subtracting the no tracer wells from the tracer-containing wells and multiplying by 1,000. […]
# SYK(M450I)-NL = biological target: T2, SYK(M450I)-NL (Homo sapiens, UniProt P43405, M450I); test: NanoBRET assay in digitonin permeabilized HEK293 cells, SYK(M450I)-NL; type: cell-based; settings: fixed concentration of tracer 8, average ± SEM, read-out: IC50, SYK(variant)-NL M450I
# T2 construct: host or cells: HEK293
# Method: as §1
# [2] = ref Altman et al., 2011; cited from earlier work
# SYK(WT)-NL = biological target: T3, SYK(WT)-NL (Homo sapiens, UniProt P43405); test: NanoBRET assay in digitonin permeabilized HEK293 cells, SYK(WT)-NL; type: cell-based; settings: fixed concentration of tracer 8, average ± SEM, read-out: IC50, SYK(variant)-NL WT
# T3 construct: SYK tracers enable BRET with full-length SYK(WT) after digitonin permeabilization; host or cells: HEK293
# Method: We performed NanoBRET tracer optimization to determine if the SYK tracers could effectively generate a BRET signal. […] To enable the NanoBRET assay using tracer 8 with cells permeabilized by digitonin, a tracer dose–response study was performed for each SYK(GoF) variant and SYK(WT) (Figure 3A), followed by tracer titration experiments (Figure 3B; Supplementary Figure S3). […] Initially, we determined the EC50 of tracer 8 for each SYK(GoF) variant and SYK(WT). […] Plates were incubated for 25 min at room temperature if digitonin was added or for 2 h at 37°C in 5% CO2 for the intact cell NanoBRET assay. […] For intact live cells in a 96-well plate, the 3X stock solution was prepared with 30 μL of NanoBRET NanoGlo substrate, 10 μL of extracellular NanoLuc inhibitor, and 4,960 μL of Opti-MEM without phenol red. For digitonin permeabilized live cells in a 96-well plate, the 3X stock solution was prepared with 30 μL of NanoBRET NanoGlo substrate and 4,970 μL of Opti-MEM without phenol red. Raw milliBRET units (mBU) were read on a GloMax Discover system (Promega) with a donor emission wavelength of 450 nm and an acceptor emission wavelength of 600 nm. mBU were calculated by dividing the acceptor emission values (600 nm) by the donor emission values (450 nm). For NanoBRET studies with SYK, background corrected mBU were calculated by subtracting the no tracer wells from the tracer-containing wells and multiplying by 1,000.
# HEK293 cells were transfected with constructs of SYK(WT) or SYK(KD) tagged with NL on the C- or N-terminus and SYK GoF variants tagged with NL on the C-terminus. Tracer 8 (20X) was prepared from a 400 μM stock solution in DMSO with tracer dilution buffer (Promega, #N291B) and 20% DMSO, with a final assay plate concentration of 1% DMSO. 5 μL of 8 (20X) was added to each well, with exception of the no tracer control wells, with final plate concentrations of 0.5, 1, and 2 μM. 10 μL of digitonin (Fisher, 10X, 500 μg/mL) was added to specific wells to permeabilize the cells. The 10X digitonin stock was prepared by diluting a 40X DMSO solution of digitonin with room temperature Opti-MEM without phenol red, for a final assay plate concentration of 1% DMSO. SYK inhibitor stock solutions of MRL-SYKi (10X) were prepared from 10 mM DMSO stock solutions with room temperature Opti-MEM without phenol red, for final assay plate concentrations of 10 μM. Plates were incubated for 25 min at room temperature if digitonin was added or for 2 h at 37°C in 5% CO2 for the intact cell NanoBRET assay. Two technical replicates were plotted in a bar chart with the standard deviation represented as error bars on Graphpad Prism.
# SYK(S550Y)-NL [3] = biological target: T1, SYK(S550Y)-NL; test: NanoBRET cellular target engagement assay in intact live HEK293 cells, SYK(S550Y)-NL; type: cell-based; settings: for IC50: tracer titration
# Method: (§2) NL orientations used in the respective assays are indicated. […] Plates were incubated for 25 min at room temperature if digitonin was added or for 2 h at 37°C in 5% CO2 for the intact cell NanoBRET assay. […] For intact live cells in a 96-well plate, the 3X stock solution was prepared with 30 μL of NanoBRET NanoGlo substrate, 10 μL of extracellular NanoLuc inhibitor, and 4,960 μL of Opti-MEM without phenol red. For digitonin permeabilized live cells in a 96-well plate, the 3X stock solution was prepared with 30 μL of NanoBRET NanoGlo substrate and 4,970 μL of Opti-MEM without phenol red. Raw milliBRET units (mBU) were read on a GloMax Discover system (Promega) with a donor emission wavelength of 450 nm and an acceptor emission wavelength of 600 nm. mBU were calculated by dividing the acceptor emission values (600 nm) by the donor emission values (450 nm). For NanoBRET studies with SYK, background corrected mBU were calculated by subtracting the no tracer wells from the tracer-containing wells and multiplying by 1,000.
# (§3) MRL-SYKi was used to compete away the NanoBRET signal produced with tracer 8. […] Tracer 8 was prepared in DMSO and DMEM without phenol red in 11-point dose-response format with 3 μM as the top concentration, with a final assay plate concentration of 1% DMSO. 10X stock solutions of MRL-SYKi were prepared from 10 mM DMSO stock solution with room temperature Opti-MEM without phenol red, for final assay plate concentrations of 10 μM. 10 μL of 8 (10X) was added to each well, with the exception of the no tracer control wells, and 10 μL of 10X solutions of MRL-SYKi was added to wells for tracer competition. One biological replicate was plotted in GraphPad Prism with [inhibitor] vs response (three parameters).
# (§4) MRL-SYKi was tested in 11-point dose–response format with a top concentration of 10 μM. […] The final assay plate concentrations included 1% DMSO. 5 μL of 8 (20X) was added to each well, except the no tracer control wells, and 10 μL of 10X threefold diluted solutions of MRL-SYKi was added to wells. Two biological replicates were plotted in GraphPad Prism with log[inhibitor] vs response (three parameters) with the error bars indicating standard deviation.
# (§5) Compounds were tested in 11-point dose–response format with a top concentration of 10 μM. Data are reported as IC50 ± standard error mean (SEM). One biological replicate was plotted in GraphPad Prism with log[inhibitor] vs response (three parameters), the three IC50’s were averaged and the SEM was calculated.
# [4] = system: GPCR scan and panel of 113 enzymes and receptors; settings: at 10 μM; ref Sgc et al., 2024; cited from earlier work
# [5] = system: pSYK(Y525/526) in SW480 cells stably expressing SYK(S550Y); test: SYK phosphorylation western blot in SW480 cells stably expressing SYK(S550Y); type: cell-based
# Method: SW480 cells stably expressing S550Y variant were maintained as previously described ([Wang et al., 2021]). For SYK S550Y inhibition, cells were seeded in 12-well plate, at 10^6 cells/well. The next day, medium was replaced and MRL-SYK inhibitor was added at 10 μM and 100 nM for 20 h. Protein lysates were prepared and analyzed on Western blot as previously described ([Wang et al., 2021]).
# SYK(P342T)-NL [6] = biological target: T4, SYK(P342T)-NL (Homo sapiens, UniProt P43405, P342T); test: NanoBRET assay in digitonin permeabilized HEK293 cells, SYK(P342T)-NL; type: cell-based; settings: fixed concentration of tracer 8, average ± SEM, read-out: IC50, SYK(variant)-NL P342T
# T4 construct: host or cells: HEK293
# Method: as §1
# SYK(A353T)-NL = biological target: T5, SYK(A353T)-NL (Homo sapiens, UniProt P43405, A353T); test: NanoBRET assay in digitonin permeabilized HEK293 cells, SYK(A353T)-NL; type: cell-based; settings: fixed concentration of tracer 8, average ± SEM, read-out: IC50, SYK(variant)-NL A353T
# T5 construct: host or cells: HEK293
# Method: as §1
# SYK(S550F)-NL [7] = biological target: T6, SYK(S550F)-NL (Homo sapiens, UniProt P43405, S550F); test: NanoBRET cellular target engagement assay in intact live HEK293 cells, SYK(S550F)-NL; type: cell-based
# T6 construct: host or cells: HEK293
# Method: as §2, §3, §4, §5
# SYK(P342T) = biological target: T7, SYK(P342T) (Homo sapiens, UniProt P43405, P342T); test: PhosphoSens SOX peptide kinase activity assay, SYK(P342T); type: biochemical; settings: purified protein, 1 mM ATP
# T7 construct: The full-length SYK GoF variants SYK(S550F) and SYK(P342T) along with SYK(WT) were purified from insect cells (Sf9); 6His (N, cleaved yes); GST (N, cleaved yes); made in house; host or cells: Sf9 insect cells (baculovirus, pFastbac1)
# SYK = biological target: T8, SYK (Homo sapiens, UniProt P43405); test: Eurofins DiscoverX SYK enzymatic radiometric assay; type: biochemical; settings: Km value for ATP, 9-pt dose-response
# T8 construct: purchased Eurofins DiscoverX (contract assay service)
# Excerpt: Eurofins kinase enzymatic radiometric assays were executed at the Km value for ATP in dose–response (9-pt curve) format for SYK, included in Table 1 as enzymatic IC50 values.
# SYK(S550F) = biological target: T9, SYK(S550F) (Homo sapiens, UniProt P43405, S550F); test: PhosphoSens SOX peptide kinase activity assay, SYK(S550F); type: biochemical; settings: purified protein, 1 mM ATP
# T9 construct: The full-length SYK GoF variants SYK(S550F) and SYK(P342T) along with SYK(WT) were purified from insect cells (Sf9); 6His (N, cleaved yes); GST (N, cleaved yes); made in house; host or cells: Sf9 insect cells (baculovirus, pFastbac1)
# SYK(P342T)-NL [8] = biological target: T4, SYK(P342T)-NL; test: NanoBRET cellular target engagement assay in intact live HEK293 cells, SYK(P342T)-NL; type: cell-based
# Method: as §2, §3, §4, §5
# SYK(S550F)-NL [9] = biological target: T6, SYK(S550F)-NL; test: NanoBRET assay in digitonin permeabilized HEK293 cells, SYK(S550F)-NL; type: cell-based; settings: fixed concentration of tracer 8, average ± SEM, read-out: IC50, SYK(variant)-NL S550F
# Method: as §1
# [10] = system: SRC, NTRK1, NTRK3, FGR, FYN, FER, and JAK2; settings: ref Sgc et al., 2024; cited from earlier work
# [11] = system: kinases of the KINOMEscan panel; settings: ref Sgc et al., 2024; cited from earlier work
structure (smiles),measurement,setting,value
Cc1cc(Nc2nccc(C)n2)cc(-c2cnc([C@@]3(O)CC[C@H](C(=O)O)C(C)(C)C3)s2)c1 [MRL-SYKi],IC50,SYK(S550Y)-NL [1],2.1 ± 1 nM
same,IC50,SYK(M450I)-NL,29 ± 6 nM
same,cellular activity,[2],< 100 nM
same,IC50,SYK(WT)-NL,10 nM
same,Kd,"SYK(S550Y)-NL [3]; linearized Cheng-Prusoff analysis, y-intercept, tracer 8, single experiment, read-out: KD, app SYK(S550Y)",27 nM
same,IC50,"SYK(S550Y)-NL [3]; [Tracer] 7.8 nM, read-out: IC50, SYK(S550Y)-NL + 8 + MRL-SYKi",27 nM
same,IC50,"SYK(S550Y)-NL [3]; [Tracer] 15.6 nM, read-out: IC50, SYK(S550Y)-NL + 8 + MRL-SYKi",27 nM
same,IC50,"SYK(S550Y)-NL [3]; [Tracer] 31.2 nM, read-out: IC50, SYK(S550Y)-NL + 8 + MRL-SYKi",32 nM
same,IC50,"SYK(S550Y)-NL [3]; [Tracer] 62.5 nM, read-out: IC50, SYK(S550Y)-NL + 8 + MRL-SYKi",42 nM
same,IC50,"SYK(S550Y)-NL [3]; [Tracer] 125 nM, read-out: IC50, SYK(S550Y)-NL + 7 + MRL-SYKi",41 nM
same,IC50,"SYK(S550Y)-NL [3]; [Tracer] 125 nM, read-out: IC50, SYK(S550Y)-NL + 8 + MRL-SYKi",74 nM
same,IC50,"SYK(S550Y)-NL [3]; [Tracer] 250 nM, read-out: IC50, SYK(S550Y)-NL + 7 + MRL-SYKi",54 nM
same,IC50,"SYK(S550Y)-NL [3]; [Tracer] 500 nM, read-out: IC50, SYK(S550Y)-NL + 7 + MRL-SYKi",98 nM
same,IC50,"SYK(S550Y)-NL [3]; [Tracer] 1000 nM, read-out: IC50, SYK(S550Y)-NL + 7 + MRL-SYKi",220 nM
same,off-target inhibition,[4],no off-target inhibition
same,pSYK(Y525/526) levels via Western blot compared to untreated cells,[5]; 100 nM for 20 h,decrease in pSYK(Y525/526) levels; also recorded: decreased pSYK(Y525/526) levels
same,pSYK(Y525/526) levels via Western blot compared to untreated cells,[5]; 10 μM for 20 h,decrease in pSYK(Y525/526) levels
same,IC50,SYK(P342T)-NL [6],4.6 ± 2.6 nM
same,IC50,SYK(A353T)-NL,10 ± 5 nM
same,IC50,"SYK(S550F)-NL [7]; intact HEK293 cells, 125 nM tracer 8, average of triplicate ± SEM, read-out: SYK(S550F) IC50",250 ± 48 nM
same,Kd,"SYK(S550F)-NL [7]; linearized Cheng-Prusoff analysis, y-intercept, tracer 8, single experiment, read-out: KD, app SYK(S550F)",46 nM
same,IC50,"SYK(S550F)-NL [7]; tracer titration, [Tracer] 7.8 nM, read-out: IC50, SYK(S550F)-NL + 8 + MRL-SYKi",29 nM
same,IC50,"SYK(S550F)-NL [7]; tracer titration, [Tracer] 15.6 nM, read-out: IC50, SYK(S550F)-NL + 8 + MRL-SYKi",44 nM
same,IC50,"SYK(S550F)-NL [7]; tracer titration, [Tracer] 31.2 nM, read-out: IC50, SYK(S550F)-NL + 8 + MRL-SYKi",77 nM
same,IC50,"SYK(S550F)-NL [7]; tracer titration, [Tracer] 62.5 nM, read-out: IC50, SYK(S550F)-NL + 8 + MRL-SYKi",98 nM
same,IC50,"SYK(S550F)-NL [7]; tracer titration, [Tracer] 125 nM, read-out: IC50, SYK(S550F)-NL + 8 + MRL-SYKi",157 nM
same,IC50,"SYK(S550F)-NL [7]; tracer titration, [Tracer] 250 nM, read-out: IC50, SYK(S550F)-NL + 8 + MRL-SYKi",190 nM
same,IC50,SYK(P342T),95 nM
same,IC50,SYK,30 nM
same,IC50,SYK(S550F),63 nM
same,IC50,"SYK(P342T)-NL [8]; intact HEK293 cells, 125 nM tracer 8, average of triplicate ± SEM, read-out: SYK(P342T) IC50",410 ± 95 nM
same,Kd,"SYK(P342T)-NL [8]; linearized Cheng-Prusoff analysis, y-intercept, tracer 8, single experiment, read-out: KD, app SYK(P342T)",179 nM
same,IC50,"SYK(P342T)-NL [8]; tracer titration, [Tracer] 15.6 nM, read-out: IC50, SYK(P342T)-NL + 8 + MRL-SYKi",134 nM
same,IC50,"SYK(P342T)-NL [8]; tracer titration, [Tracer] 31.2 nM, read-out: IC50, SYK(P342T)-NL + 8 + MRL-SYKi",194 nM
same,IC50,"SYK(P342T)-NL [8]; tracer titration, [Tracer] 62.5 nM, read-out: IC50, SYK(P342T)-NL + 8 + MRL-SYKi",371 nM
same,IC50,"SYK(P342T)-NL [8]; tracer titration, [Tracer] 125 nM, read-out: IC50, SYK(P342T)-NL + 8 + MRL-SYKi",365 nM
same,IC50,"SYK(P342T)-NL [8]; tracer titration, [Tracer] 250 nM, read-out: IC50, SYK(P342T)-NL + 8 + MRL-SYKi",498 nM
same,IC50,SYK(S550F)-NL [9],14 ± 5 nM
same,off-target kinases less potent than SYK,[10],≥ 111 fold
same,selectivity versus the protein kinase family in the KINOMEscan panel,[11],greater than 30 fold
